Among the data in the Kinase Knowledgebase extract (Sharma et al. 2016) are Ki values, retold here.

In the experiment the target is PIK3CA (human) (UniProt P42336). Description: Assessment of PIK3CA Kinase Activity.
Chain of PIK3CA (human) (P42336 whole entry, looked up): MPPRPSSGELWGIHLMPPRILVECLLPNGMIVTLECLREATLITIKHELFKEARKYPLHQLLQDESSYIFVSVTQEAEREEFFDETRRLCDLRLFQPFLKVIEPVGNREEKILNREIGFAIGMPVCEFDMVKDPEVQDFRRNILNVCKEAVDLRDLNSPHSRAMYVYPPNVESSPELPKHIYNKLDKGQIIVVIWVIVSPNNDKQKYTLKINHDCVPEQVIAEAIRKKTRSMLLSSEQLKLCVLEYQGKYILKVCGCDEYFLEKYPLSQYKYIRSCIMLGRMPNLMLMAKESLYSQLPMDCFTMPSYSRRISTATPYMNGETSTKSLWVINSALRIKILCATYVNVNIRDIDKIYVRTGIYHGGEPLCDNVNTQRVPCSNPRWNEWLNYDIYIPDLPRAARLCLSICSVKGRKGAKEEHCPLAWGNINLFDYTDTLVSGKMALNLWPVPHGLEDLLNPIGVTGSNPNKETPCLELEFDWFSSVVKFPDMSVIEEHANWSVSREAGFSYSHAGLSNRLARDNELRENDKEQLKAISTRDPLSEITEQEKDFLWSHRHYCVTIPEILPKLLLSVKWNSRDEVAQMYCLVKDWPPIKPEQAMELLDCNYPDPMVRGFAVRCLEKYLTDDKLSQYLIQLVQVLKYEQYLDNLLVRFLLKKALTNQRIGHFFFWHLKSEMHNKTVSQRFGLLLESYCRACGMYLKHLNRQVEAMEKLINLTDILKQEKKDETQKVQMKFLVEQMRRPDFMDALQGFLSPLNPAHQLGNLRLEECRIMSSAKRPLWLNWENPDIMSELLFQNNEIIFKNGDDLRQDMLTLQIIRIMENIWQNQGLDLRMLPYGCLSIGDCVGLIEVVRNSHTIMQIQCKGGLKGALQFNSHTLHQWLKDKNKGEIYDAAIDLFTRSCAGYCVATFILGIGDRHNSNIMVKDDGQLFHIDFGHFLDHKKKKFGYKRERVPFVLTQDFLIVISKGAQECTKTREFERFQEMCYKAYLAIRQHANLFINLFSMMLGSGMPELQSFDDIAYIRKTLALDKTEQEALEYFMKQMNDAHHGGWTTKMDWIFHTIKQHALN

For orientation: Ki means the equilibrium dissociation constant of an inhibitor or competing ligand from its target. A lower Ki goes with higher affinity. Turning to `COc1ccc(Nc2ncc(CN3CC[C@@H](CO)C3)cc2-c2nc(C)nc(N)n2)cn1`, the Ki stood at 278 nM.
`COc1ccc(Nc2ncc(CN3CCNCC3)cc2-c2nc(C)nc(N)n2)cn1` registered a Ki of 61 nM.
For `COc1ccc(Nc2ncc(C(O)C(F)(F)F)cc2-c2nc(C)nc(N)n2)cn1` (stereo unspecified) the value was 33 nM; for `Cc1nc(N)nc(-c2cccnc2Nc2cccc3[nH]ncc23)n1`, 33 nM; for `COc1ccc(Nc2ncc(Cc3ccccc3)cc2-c2nc(C)nc(N)n2)cn1`, 65 nM.
As for `COc1ccc(Nc2ncc(CN3CCN(C)CC3)cc2-c2nc(C)nc(N)n2)cn1`, the Ki came to 258 nM.
For `COc1ccc(Nc2ncc(Br)cc2-c2nc(C)nc(N)n2)cn1` the value was 247 nM; for `COc1ccc(Nc2ncc(C3=CCOCC3)cc2-c2nc(C)nc(N)n2)cn1`, 5 nM; for `COc1ccc(Nc2ncc(CN3CCN(S(=O)(=O)N(C)C)CC3)cc2-c2nc(C)nc(N)n2)cn1`, 17 nM.
Consider `Cc1nc(N)nc(-c2cc([C@@H](C)N3CCOCC3)cnc2Nc2cnc(Cl)c(NS(C)(=O)=O)c2)n1`, for which the Ki turned out to be 7 nM.
For `COc1cnc(Nc2cnc(Cl)c(NS(=O)(=O)N(C)C)c2)c(-c2nc(C)nc(N)n2)c1` the value was 14 nM; for `COc1ccc(Nc2ncc(CN3CCC(S(C)(=O)=O)CC3)cc2-c2nc(C)nc(N)n2)cn1`, 22 nM.
For `COCCOc1cnc(Nc2cnc(Cl)c(NS(C)(=O)=O)c2)c(-c2nc(C)nc(N)n2)c1` the value was 5 nM; for `COc1ccc(Nc2ncccc2-c2nc(C)nc(N)n2)cn1`, 107 nM; for `COc1ccc(Nc2ncc(CN3CCC(O)CC3)cc2-c2nc(C)nc(N)n2)cn1`, 199 nM.
For `COc1ncc(Nc2ncc([C@@H](C)CO)cc2-c2nc(C)nc(N)n2)cc1F` the value was 9 nM; for `COc1ccc(Nc2ncc(CC3CCN(S(C)(=O)=O)CC3)cc2-c2nc(C)nc(N)n2)cn1`, 9 nM; for `COc1ccc(Nc2ncc(-c3cnn(C)c3)cc2-c2nc(C)nc(N)n2)cn1`, 8 nM.
Regarding `COc1ccc(Nc2ncc([C@@H](O)C(C)(C)C)cc2-c2nc(C)nc3[nH]cnc23)cn1`, the Ki worked out at 12 nM.
As to `COc1ncc(Nc2ncc(CN3CCN(C(=O)N(C)CC(F)(F)F)CC3)cc2-c2nc(C)nc(N)n2)cc1F`, the Ki turned out to be 24 nM.
As for `COc1ccc(Nc2ncc(CN3CCC3)cc2-c2nc(C)nc(N)n2)cn1`, the Ki came to 160 nM.
For the compound `COc1ccc(Nc2ncc(CO)cc2-c2nc(C)nc(N)n2)cn1`, the Ki came to 63 nM.
For `COc1ccc(Nc2ncc(CN3CCCCC3)cc2-c2nc(C)nc(N)n2)cn1` the value was 153 nM.
`COc1cnc(Nc2ccc(OC)nc2)c(-c2nc(C)nc(N)n2)c1` gave a Ki of 55 nM.
`COc1ccc(Nc2ncc(Cl)cc2-c2nc(C)nc(N)n2)cn1` came in with a Ki of 70 nM.
For `COCCNCc1cnc(Nc2ccc(OC)nc2)c(-c2nc(C)nc(N)n2)c1` the value was 283 nM; for `COc1ccc(Nc2ncc(CN3CCCC3)cc2-c2nc(C)nc(N)n2)cn1`, 266 nM.
The compound `COc1ccc(Nc2ncc(CN3CCC(S(C)(=O)=O)C3)cc2-c2nc(C)nc(N)n2)cn1` (stereo unspecified) came in with a Ki of 16 nM.
`COc1ccc(Nc2ncc(CN3CCOCC3)cc2-c2nc(C)nc(N)n2)cn1` came in with a Ki of 104 nM.
For `COc1cccc(Nc2cnc(Nc3ccc(OC)nc3)c(-c3nc(C)nc4[nH]cnc34)c2)c1` the value was 35 nM; for `COc1ccc(Nc2ncccc2-c2ncnc3[nH]cnc23)cn1`, 7280 nM.
The compound `Cc1nc(N)nc(-c2cc(Cl)cnc2Nc2cnc(Cl)c(NS(=O)(=O)N(C)C)c2)n1` yielded a Ki of 2 nM.
For `COc1ncc(Nc2ncc([C@H](C)CO)cc2-c2nc(C)nc(N)n2)cc1F` the value was 7 nM; for `COc1ccc(Nc2ncc(C)cc2-c2nc(C)nc(N)n2)cn1`, 242 nM.
For `COc1ccc(Nc2ncc([C@H](O)C(C)(C)C)cc2-c2nc(C)nc3[nH]cnc23)cn1` the value was 31 nM.
For `COc1ncc(Nc2ncc(CN3CCN(C(=O)N(C)C4CC4)CC3)cc2-c2nc(C)nc(N)n2)cc1F` the value was 45 nM.
